PMC5730592, “Parallelogram based approach for in vivo dose estimation of genotoxic metabolites in humans with relevance to reduction of animal experiments” (Scientific Reports, 2017)
“And” between values parts separate entries of the source, which are not always exact repeats. Identical values can stand only once. Like-named read-outs stand apart in the source and are kept apart here.

Columns and labels:
[1] = Parallelogram approach prediction of AUC-DEB in rat from BD exposure; settings: from the parallelogram approach
Protocol: The inter-species extrapolation was performed using in vitro metabolic data on enzyme kinetics and published Hb adduct data[6]. This study was initiated as the AUC of DEB (AUC-DEB), in humans exposed to BD, had not been possible to measure with available methods.
(§1) In our first application of the parallelogram approach, AUC-DEB was predicted in a case study on BD exposure. […] In the case of BD, the relatively large inter-species differences in metabolism were an advantage for testing of the approach.

[2] = AUC-DEB in rat calculated from measured Hb adduct levels after BD exposure; assay type: in vivo
From the text: as §1

[3] = design: method as in PMID 25448046; settings: rat, for 1 ppm·h of BD exposure; cited from earlier work
[4] = design: method as in PMID 25448046; settings: occupationally BD-exposed humans; cited from earlier work
[5] = design: method as in PMID 25448046; settings: rat exposed to BD; cited from earlier work
[6] = design: method as in PMID 25448046; settings: mouse exposed to BD; cited from earlier work
[7] = design: method as in PMID 25448046; settings: mouse, for 1 ppm·h of BD exposure; cited from earlier work
[8] = design: method as in PMID 25448046; settings: human, for 1 ppm·h of BD exposure; cited from earlier work
[9] = liver microsomes, rat (male, SD) vs. human (male); cited from earlier work
[10] = In vivo dose (AUC) in human calculated from measured Hb adduct levels after AA exposure; settings: human in vivo study used (dietary AA)
Protocol: (§2) The in vivo dose or AUC of a compound in blood is the concentration integrated over time (Eq. 2).2 AUC=∫tC(t)dt A method to infer the AUC of an electrophilic compound or metabolite from measured Hb adduct levels (A) has been developed and established by our research group for quantitative monitoring of exposure in humans or for application in animal studies[1],[3]. When Hb adduct formation is measured a short time after a single acute exposure, or after incubation in vitro, AUC can be calculated using Eq. 3. This equation is based on A, and the second-order reaction rate constant (kNu) for the formation of an adduct to a nucleophilic site in Hb from the concerned electrophile.3 AUC=A/kNu
(§3) For calculating the daily AUC from a longer duration of exposure, the daily adduct level increments (a) have to be calculated considering the accumulation and elimination of adducts due to lifetime of the erythrocytes (t er). […] From continuous or subchronic exposure when the exposure time (t) is shorter than t er, the accumulated adduct level is calculated [a × t × (1 − t/2t er)][49].
In vivo dose or AUC of AA and of GA in human after intake of AA-rich food was obtained from Vikström et al.[23]. […] The measured adduct levels were used to calculate the daily adduct level increment, a, and adjusted for intake per kg bw (exposure dose 11 μg AA/kg bw). […]

[11] = cited from earlier work
[12] = In vivo dose (AUC) in rat calculated from measured Hb adduct levels after AA exposure; settings: rat in vivo study used (AA in drinking water)
Protocol: as §2, §3
For in vivo data on AUC of AA and of GA from AA exposure in rats, a study on short-term oral exposure of rats was used[24]. […] Blood samples were collected and AA- and GA-adducts to N-terminal valine in Hb were measured as described above, and recalculated to the daily increment of the adduct level. […]

[13] = male rat, different AA exposure studies, various methods; cited from earlier work
[14] = cited from earlier work; remark: listed apart in the source
[15] = design: method as in Doerge at al. (2005); settings: male F344 rats, single dietary exposure ca. 100 µg AA/kg bw, n = 7, direct measurements; ref Doerge at al. (2005); cited from earlier work

| SMILES | ratio for rat-to-human of AUC-DEB per AUC-EB [1] | ratio for rat-to-human of AUC-DEB per AUC-EB [2] | AUC-DEB predicted (parallelogram approach) [3] [nM·h] | AUC-DEB calculated from measured Hb adducts levels [4] [nM·h/ppm·h BD] | AUC-DEB calculated from measured Hb adducts levels [5] [nM·h/ppm·h BD] | AUC-DEB calculated from measured Hb adducts levels [6] [nM·h/ppm·h BD] | AUC-DEB predicted (parallelogram approach) [7] [nM·h] | AUC-DEB predicted (parallelogram approach) [8] [nM·h] | oxidation to GA, rat compared to human (times faster in rat) [9] | in vivo levels of AA (estimated) [10] | AUC-AA ([11]; Rat (male F344), 500 and 2000 μg AA/kg bw and day in drinking water, one week, n = 6, from Hb adducts) | AUC of AA ([11]; SD rat (male), subchronic intraperitoneal AA, Hb adducts on cysteine site) [nM·h per μg AA per kg bw] | AUC-AA ([11]; male F344 rats, single dose 0.1 mg AA/kg bw, Hb adducts, ref Tareke et al. (2006)) [nM·h/ μg AA per kg bw] | in vivo levels of AA (estimated) [12] [µM] | range of AUC-AA [13] | daily Hb adduct level increment per exposure dose ([14]; Human, AA-rich food 4 days, 11 μg AA/kg bw, adducts to N-terminal valine) | AUC-AA ([14]; Human, ca. 11 μg AA/kg bw and day through food, 4 days, n = 9, from Hb adducts) | AUC-AA ([14]; Humans, ca. 2.5 μg AA/kg bw daily through food, 28 days, n = 9, ref Vikström et al. (2011)) [nM·h/ μg AA per kg bw] | AUC-AA ([14]; Humans, single dose in drinking water 500, 1000 and 3000 µg AA/kg bw, n = 6 males, ref Fennell et al. (2005)) [nM·h/ μg AA per kg bw] | AUC-AA [15] [nM·h/ μg AA per kg bw] |
| --- | --- | --- | --- | --- | --- | --- | --- | --- | --- | --- | --- | --- | --- | --- | --- | --- | --- | --- | --- | --- |
| C1OC1C1CO1 (centres unmarked) [DEB, 1,2:3,4-diepoxbutane] | 2.2 | 4.3 | 1.26 | 0.023 | 1.37 | 38 | 41 | 0.078 | – | – | – | – | – | – | – | – | – | – | – | – |
| C=CC(N)=O [AA, Acrylamide] | – | – | – | – | – | – | – | – | ca. 3 times | about 100 nM | 34 ± 3 nM·h/μg AA per kg bw and 34 nM·h/μg AA per kg bw | 28.2 | 23 | ~25 | 18–80 nM·h per μg AA per kg bw | 1.4 pmol/g globin per μg AA/kg bw and day | 212 ± 56 nM·h/μg AA per kg bw and 212 nM·h/μg AA per kg bw | 120 | 246 | 18 |
